# Experimental data taken from PubChem BioAssay (NCI).
# Values joined by “and” are separate entries in the source; they are usually repeats but may differ in a detail not shown here. Equal entries are not always repeated.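 Cultured in 96-well plates, cells were exposed to test compound for 48 hours across five concentrations. Here, GI50 denotes the concentration required for 50% inhibition of growth. TGI: total growth inhibition.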
# Key:
# Experiment in all cases: growth of human tumour cells (NCI), 48 h
# OVCAR-5 ovarian = tested on: OVCAR-5 ovarian
# MALME-3M melanoma = tested on: MALME-3M melanoma
# HCC-2998 colon = tested on: HCC-2998 colon
# HOP-92 NSCLC = tested on: HOP-92 NSCLC
# HCT-116 colon = tested on: HCT-116 colon
# BT-549 breast = tested on: BT-549 breast
# SK-MEL-28 melanoma = tested on: SK-MEL-28 melanoma
# SF-539 CNS = tested on: SF-539 CNS
# PC-3 prostate = tested on: PC-3 prostate
# HT29 colon = tested on: HT29 colon
SMILES,GI50 (OVCAR-5 ovarian),TGI (OVCAR-5 ovarian),GI50 (MALME-3M melanoma),TGI (MALME-3M melanoma),GI50 (HCC-2998 colon),TGI (HCC-2998 colon),GI50 (HOP-92 NSCLC),TGI (HOP-92 NSCLC),GI50 (HCT-116 colon),TGI (HCT-116 colon),GI50 (BT-549 breast),TGI (BT-549 breast),GI50 (SK-MEL-28 melanoma),TGI (SK-MEL-28 melanoma),GI50 (SF-539 CNS),TGI (SF-539 CNS),GI50 (PC-3 prostate),TGI (PC-3 prostate),GI50 (HT29 colon),TGI (HT29 colon)
CO[C@H](C(=O)N[C@@H](CCCCNC(=O)OCc1ccccc1)C(=O)OC(C)(C)C)[C@@H]1Cc2cc3cc(OC4CC(OC5CC(O)C(O)C(C)O5)C(O)C(C)O4)c(C)c(O)c3c(O)c2C(=O)[C@H]1OC1CC(OC2CC(OC3CC(C)(O)C(O)C(C)O3)C(O)C(C)O2)C(O)C(C)O1 (stereo partly drawn),0.976 µM,2.82 µM,0.516 µM,1.86 µM,0.885 µM,3.2 µM,0.443 µM,1.97 µM,0.397 µM,1.63 µM,0.518 µM,1.81 µM,0.468 µM,1.87 µM,0.559 µM,3.08 µM,0.7 µM,8.67 µM,0.508 µM,> 10 µM
Cn1cc(C2=C(c3c4n(c5ccccc35)CCC(CN)CC4)C(=O)NC2=O)c2ccccc21 (stereo not drawn),3.51 µM,9.14 µM,3.8 µM,7.88 µM,4.43 µM,8.46 µM,2.92 µM,7.69 µM,3.51 µM,7.26 µM,4.7 µM,8.62 µM,4.17 µM,8.06 µM,3.91 µM,7.35 µM,3.39 µM,7.95 µM,2.88 µM,9.29 µM
CN1CCN(Cc2ccc(NC(=O)c3cncc(C#Cc4c(N)ncc5cc(F)ccc45)c3)cc2C(F)(F)F)CC1,1.06 µM,3.55 µM,0.36 µM,1.14 µM,2.04 µM,11.1 µM,0.2 µM,2.03 µM,0.595 µM,1.26 µM,4.86 µM,12.6 µM,0.729 µM,1.43 µM,0.86 µM,2.73 µM,0.747 µM,1.53 µM,0.276 µM,1.15 µM
COc1cc(-c2nc3ccccc3s2)ccc1OCc1nc2n(n1)S(=O)(=O)c1ccccc1N2C,> 100 µM,> 100 µM,> 100 µM,> 100 µM,> 100 µM,> 100 µM,43.9 µM,> 100 µM,> 100 µM,> 100 µM,> 100 µM,> 100 µM,> 100 µM,> 100 µM,> 100 µM,> 100 µM,> 100 µM,> 100 µM,> 100 µM,> 100 µM
C/C(=C\c1ccn(-c2ccc(N)cc2)n1)[C@@H]1C[C@@H]2O[C@]2(C)CCC[C@H](C)[C@H](O)[C@@H](C)C(=O)C(C)(C)[C@@H](O)CC(=O)O1,0.107 µM,> 50 µM,0.125 µM,> 50 µM,0.0382 µM,> 50 µM,,> 50 µM,0.0189 µM,> 50 µM,0.138 µM,> 50 µM,,,0.0702 µM,0.357 µM,0.0313 µM,> 50 µM,0.0187 µM,> 50 µM
O=C1/C(=C/c2ccc(Cl)cc2)CN(C(=O)C(Cl)Cl)C/C1=C\c1ccc(Cl)cc1,0.287 µM,0.799 µM,0.23 µM,0.759 µM,0.182 µM,0.345 µM,0.249 µM,1.01 µM,0.0336 µM,0.13 µM,0.259 µM,0.765 µM,0.227 µM,0.517 µM,0.194 µM,0.467 µM,0.199 µM,0.686 µM,0.0714 µM,1.43 µM
COc1cc2c(cc1OC)[C@@]1(C)C(=O)c3cc4c(cc3[C@H]1N(C)C2=O)OCO4,> 100 µM,> 100 µM,75.1 µM,> 100 µM,74.7 µM,> 100 µM,28.8 µM,> 100 µM,43.6 µM,> 100 µM,29 µM,> 100 µM,> 100 µM,> 100 µM,24 µM,75.7 µM,75.2 µM,> 100 µM,88 µM,> 100 µM
O=C(O)CCC1CCC(c2cc(F)ccc2F)(S(=O)(=O)c2ccc(Cl)cc2)CC1 (stereo not drawn),92.2 µM and > 100 µM,> 100 µM,10.2 µM and > 100 µM,96.4 µM and > 100 µM,38 µM and > 75.4 µM,> 100 µM,,95.1 µM and > 100 µM,23.5 µM and > 100 µM,> 100 µM,10.9 µM and 97.8 µM,43.1 µM and > 100 µM,25.5 µM and > 100 µM,> 100 µM,29.4 µM and > 100 µM,> 100 µM,75.8 µM and > 100 µM,> 100 µM,30.3 µM and > 100 µM,> 100 µM
NC(=O)Oc1cc(OC(N)=O)cc(N(CCCl)CCCl)c1,4.35 µM,30 µM,5.73 µM,23.3 µM,16.9 µM,61.9 µM,0.849 µM,7.87 µM,7.77 µM,> 100 µM,7.93 µM,30.7 µM,15.7 µM,65.3 µM,1.65 µM,5.96 µM,7.1 µM,54.8 µM,10.8 µM,51.4 µM
COc1ccc2c(c1)Cc1c-2c(NN)nc2ccccc12,35.5 µM,> 100 µM,> 100 µM,> 100 µM,28.4 µM,> 100 µM,22.8 µM,71.6 µM,24.4 µM,75.7 µM,50.4 µM,> 100 µM,60.5 µM,> 100 µM,36.3 µM,> 100 µM,19.8 µM,> 100 µM,31.5 µM,> 100 µM
COc1cc(C(=O)n2nc(N3CCN(C)CC3)c3cc(N)ccc32)cc(OC)c1OC,8.18 µM,> 100 µM,5.12 µM,50.3 µM,3.6 µM,14.3 µM,6.4 µM,> 100 µM,3.84 µM,> 100 µM,4.32 µM,> 100 µM,14 µM,99.4 µM,2.86 µM,10.1 µM,17.7 µM,> 100 µM,3.65 µM,14.9 µM
CCOC(=O)c1c(Cl)c2c(n1Cc1cc(OC)cc(OC)c1)-c1oncc1CCC2,0.812 µM,> 100 µM,0.118 µM,,15.4 µM,> 100 µM,0.335 µM,28.6 µM,0.432 µM,> 100 µM,19.6 µM,> 100 µM,0.554 µM,> 100 µM,,,0.293 µM,> 100 µM,0.314 µM,68 µM
ON(CCc1ccccn1)Cc1ccccc1,,> 100 µM,,> 100 µM,,> 100 µM,,> 100 µM,,> 100 µM,,> 100 µM,,> 100 µM,,> 100 µM,,> 100 µM,,> 100 µM
CN(C)CC1CCn2c(c(C3=C(c4cn(C)c5ccccc45)C(=O)NC3=O)c3ccccc32)C1 (stereo not drawn),4.61 µM,12.8 µM,3.59 µM,7.31 µM,4.65 µM,8.93 µM,1.78 µM,6.55 µM,3.24 µM,6.75 µM,5.3 µM,12.2 µM,4.59 µM,8.74 µM,3.87 µM,7.49 µM,3.71 µM,8.03 µM,3.16 µM,7.83 µM
CO[C@H]1CC[C@@]2(C)C(=CC[C@H]3[C@@H]4C[C@H](O)C[C@@]4(C)CC[C@@H]32)C1,20.2 µM,44.1 µM,5.22 µM,19.4 µM,11.6 µM,27.2 µM,1.38 µM,18.1 µM,4.88 µM,18.1 µM,7.38 µM,22.8 µM,8.55 µM,22.1 µM,3.01 µM,8.64 µM,3.91 µM,30.3 µM,3.59 µM,12.4 µM
O=C(O)CC1(C(=O)O)CCCCC1,,> 100 µM,,> 100 µM,,> 100 µM,,> 100 µM,,> 100 µM,,> 100 µM,,> 100 µM,,> 100 µM,,> 100 µM,,> 100 µM
COc1ccc(Nc2ccnc(NCCCNc3ccnc4cc(Cl)ccc34)n2)cc1,1.16 µM,3.73 µM,1.36 µM,3.08 µM,1.01 µM,2.61 µM,0.632 µM,2.65 µM,0.374 µM,1.54 µM,1.65 µM,3.94 µM,0.434 µM,1.66 µM,0.169 µM,0.352 µM,1.63 µM,11.2 µM,0.393 µM,2.2 µM
O=C(Nc1ccc(Br)c(Cl)c1)c1cc(F)ccc1O,1.71 µM,> 50 µM,0.263 µM,1.99 µM,1.63 µM,> 22 µM,0.121 µM,0.755 µM,0.423 µM,2.08 µM,0.525 µM,2.7 µM,0.421 µM,3.87 µM,0.771 µM,6.32 µM,1.25 µM,> 14.8 µM,1.71 µM,8.35 µM
CCCC(=O)NNc1[nH]c(-c2ccc(OC)cc2)cc1C(=O)OCC,23.7 µM,44.4 µM,14.5 µM,29.2 µM,,,18.6 µM,35.5 µM,37.2 µM,> 100 µM,15.7 µM,31 µM,12.7 µM,25.6 µM,19.3 µM,37 µM,19.4 µM,41.4 µM,17.4 µM,34.3 µM
COc1ccc(-c2nc(-c3nc4cc(C)c(C)cc4[nH]3)cc3c2[nH]c2ccccc23)cc1,4.01 µM,> 100 µM,4.6 µM,16.5 µM,3.88 µM,94.8 µM,,,3.22 µM,13 µM,2.96 µM,8.21 µM,2.89 µM,10.5 µM,1.72 µM,4.24 µM,2.77 µM,44 µM,3.76 µM,> 100 µM
O=C(/C=C\Sc1nccc(C(F)(F)F)n1)c1ccc(Br)cc1,21.8 µM,70.7 µM,16.9 µM,43.9 µM,12.5 µM,32.6 µM,,,12.8 µM,25.5 µM,44.6 µM,> 100 µM,16 µM,32.1 µM,23.3 µM,69.4 µM,15.4 µM,29.4 µM,19.6 µM,41.6 µM
CCOC(=O)c1cc2ncccc2c2ccccc12,,> 100 µM,,> 100 µM,,> 100 µM,,> 100 µM,,> 100 µM,,> 100 µM,,> 100 µM,,,,> 100 µM,,> 100 µM
CN1CCN(Cc2ccc(Nc3ncc(Cl)c(Nc4ccccc4S(=O)(=O)N(C)C)n3)cc2)CC1,0.0378 µM,> 100 µM,0.092 µM,0.379 µM,,,0.0999 µM,1.68 µM,< 0.0157 µM,,0.137 µM,0.374 µM,0.0497 µM,0.415 µM,0.114 µM,0.343 µM,0.0731 µM,> 100 µM,0.0308 µM,0.577 µM
CN(CCC(=O)O)S(=O)(=O)c1ccccc1,,> 100 µM,,> 100 µM,,,,> 100 µM,,> 100 µM,,> 100 µM,,> 100 µM,,> 100 µM,,> 100 µM,,> 100 µM
CC(=O)OCC1OC(S[As](C)C)C(OC(C)=O)C1OC(C)=O (stereo not drawn),0.481 µM,2.17 µM,0.107 µM,0.696 µM,0.255 µM,1.76 µM,0.328 µM,2.57 µM,0.226 µM,1.38 µM,0.645 µM,2.87 µM,0.446 µM,2.73 µM,0.226 µM,0.907 µM,1.11 µM,13.1 µM,,
CC[C@H](C)C(=O)O[C@H]1CCC=C2C=C[C@H](C)C(CCC3C[C@@H](O)CC(=O)O3)[C@H]21 (stereo partly drawn),20.8 µM,> 100 µM,,,33 µM,> 100 µM,0.236 µM,5.59 µM,2.99 µM,62.1 µM,17.2 µM,> 100 µM,84.9 µM,> 100 µM,83.2 µM,> 100 µM,1.48 µM,> 100 µM,29 µM,> 100 µM
